The values below come from patent publication US10323228B2, “Differentiation of hepatocyte-like cells from stem cells” (Agency for Science, Technology and Research, priority 2014, dated 2019).

Like-named read-outs stand apart in the source and are kept apart here.

Test [1] relates to GF-Hep (hepatocytes derived from hESCs using growth factors). Description: Cell viability assay (MTT) of growth factor-derived hepatocytes after 24 hours drug treatment. It is filed as cell-based. Particulars: Homo sapiens, Hepatocyte, read-out: IC50 GF-Hep. How it is done:
(§1) The differentiation was initiated when hESCs reached a confluence level of approximately 80%. […] Briefly, basal differentiation medium was composed of 60% DMEM-low glucose (Gibco, Carlsbad, Calif., USA), 40% MCDB-201-water (Sigma), 0.25× Linoleic acid—Bovine serum albumin (LA-BSA) (Sigma), 0.25× Insulin-transferrin-selenium (ITS) (Sigma), 100 U/mL Penicillin and 100 μg/mL Streptomycin (Cellgro), 0.1 mM L-Ascorbic Acid (Sigma), 1 μM Dexamethasone (Sigma) and 110 μM 2-mercaptoethanol (Gibco).
(§2) Cell viability of differentiated hepatocytes was measured 24 hours after treatment with drugs using CellTiter 96® Non-Radioactive Cell Proliferation Assay (MTT) (Promega, Madison, Wis., USA) according to manufacturer's instructions. The following drugs were used for the cell viability assays: Acetaminophen, Diclofenac, Digoxin, Chlorpromazine, Troglitazone and Quinidine (all drugs from Sigma). Stock solutions of drugs were prepared in DMSO and then diluted in media to obtain desired working concentrations. Controls were treated with DMSO alone (in absence of test compounds) and considered as 100% viability value.
(§3) One of the major applications of hepatocytes is toxicity screening in order to aid drug development and discovery. Researchers have tried to predict drug-induced cytotoxicity in vitro using HepG2, HepaRG primary human hepatocyte (PH) as well as hESC/hiPSC-derived hepatocyte like cells. Although primary human hepatocyte (PH) are considered the gold standard for drug metabolism and toxicity in vitro, cells lines such as HepG2 and HepaRG are less expensive than primary human hepatocyte (PH) and reproducible experiments are easier to perform than they are with primary human hepatocyte (PHs). However, 30% of the compounds were incorrectly classified as nontoxic. To overcome these problems, it would be highly advantageous if hESC/hiPSC derived hepatocytes could be used to predict drug-induced toxicity. To examine its applicability to drug screening, small molecule-derived hepatocytes (SM-Hep) were treated with various drugs that cause hepatotoxicity. Cell viability, assessed using MTT assay, was compared to growth factor-derived hepatoctyes (GF-Hep) as well as primary human hepatocyte (PH). The susceptibility of small molecule-derived hepatocytes (SM-Hep) to all the drugs tested was similar to that of the growth factor-derived hepatoctyes (GF-Hep) (FIG. 6).

Test [2] relates to SM-Hep (hepatocytes derived from hESCs using small molecules). As to the kind of experiment: Cell viability assay (MTT) of small molecule-derived hepatocytes after 24 hours drug treatment. It is filed as cell-based. Particulars: Homo sapiens, Hepatocyte, read-out: IC50 SM-Hep. On the procedure:
as §1, §2, §3

Test [3] deals with primary human hepatocytes (PH, PHHs). Description: Cell viability assay (MTT) of primary human hepatocytes after 24 hours drug treatment. It is filed as cell-based. The following applies: Hepatocyte, read-out: IC50 PH. On the procedure:
Cryopreserved PHHs were obtained from Life Technologies (Carlsbad, Calif., USA) and BD Biosciences (Franklin Lakes, N.J., USA). The cells were thawed in a 37° C. water bath and resuspended in pre-warmed InVitroGRO HT Thawing Medium (Celsis, In Vitro Technologies, Baltimore, Md., USA). The cells were centrifuged at 800 rpm at 4° C. and the cell pellet was resuspended in InVitroGRO CP Plating Medium (containing 0.02% Torpedo Antibiotic Mix). Cells were counted and 50,000 cells were plated into each well of 96-well plates (Nunc, Naperville, Ill., USA) pre-coated with neutralized 1.5 mg/ml PureCol® Bovine Collagen solution, Type 1 (Advanced Biomatrix, San Diego, Calif., USA). After allowing for cell attachment for 4 hours, the media was changed to William's media E (Sigma-Aldrich, Singapore), supplemented with 1 mg/ml bovine serum albumin (Sigma), 1× insulin-transferrin-selenium and 1×MEM non-essential amino acids (Gibco, Carlsbad, Calif., USA), 100 nM dexamethasone (Sigma), 0.3 mg/ml L-glutamine (Lonza, Basel, Switzerland), 100 U/ml penicillin and 100 μg/ml streptomycin (Cellgro, Manassas, Va.). Culture medium was changed daily. Three different lots of hepatocytes were used for the experiments. All assays were performed after 2 days of culture.
as §2, §3

Test [4] relates to hESCs (H9). Description: qPCR of pluripotency and definitive endoderm markers in hESCs treated for 6 days. It is filed as cell-based, human. Particulars: among small molecule combinations. On the procedure:
hESC cell line, H9 (WiCell Research Institute, Madison, Wis.) was cultured and propagated on tissue culture plates coated with matrigel (BD Biosciences, San Jose, Calif., USA) in mTeSRTM 1 media (Stem Cell Technologies, Vancouver, BC, Canada). Cultures were passaged at intervals of 5-7 days by incubation with 1 mg/ml dispase (Stem Cell Technologies) for 5 minutes at 37° C. Colonies were picked under microscopic guidance and replated at 1:3 to 1:6 split ratios. […] (20 ng/ml). […] In human embryonic stem cells (hESCs), manipulations of Nodal and Wnt signaling have been exploited to direct differentiation towards definitive endoderm (DE). […] Therefore, to induce differentiation of HESCs into definitive endoderm using small molecules, the present study analyzed effects of compounds which could substitute for Activin A or/and Wnt signaling. […] Cells were cultured in the presence of diverse combinations of these three compounds for 6 days, and expression of pluripotency marker (OCT4) and definitive endoderm markers (SOX17 and FoxA2) were analyzed using qPCR. […] The expression of pluripotency markers (OCT4, Nanog and SOX2) and definitive endoderm (DE) markers (SOX17 and FOXA2) were analyzed using qPCR. […]

The mark [5] stands for this setting: Table 1 (initial results), cell viability, 24 hours treatment.
Setting [6] is: Table 2 (updated results), cell viability, 24 hours treatment, PHHs.

For `C[C@H]1O[C@@H](O[C@H]2[C@@H](O)C[C@H](O[C@H]3[C@@H](O)C[C@H](O[C@H]4CC[C@@]5(C)[C@H](CC[C@@H]6[C@@H]5C[C@@H](O)[C@]5(C)[C@@H](C7=CC(=O)OC7)CC[C@]65O)C4)O[C@@H]3C)O[C@@H]2C)C[C@H](O)[C@@H]1O` [Digoxin], the IC50 in test [1] (24 h) turned out to be 0.25 µM; in test [2] (24 h), 0.36 µM; in test [3] it was 0.34 µM.

Consider `O=C(O)Cc1ccccc1Nc1c(Cl)cccc1Cl` [Diclofenac], for which the IC50 in test [1] (setting [5]) was 1860 µM; in test [2] (setting [5]) it was 1930 µM; in test [3] (setting [5]), 3590 µM; in test [3] (setting [6]), 3590 µM.

On to `CC(=O)Nc1ccc(O)cc1` [Acetaminophen], for which the IC50 was found to be 46000 µM in test [1] (setting [5]), 38100 µM in test [2] (setting [5]), 45200 µM in test [3] (setting [5]) and 45200 µM in test [3] (setting [6]).

In the case of `Cc1c(C)c2c(c(C)c1O)CCC(C)(COc1ccc(CC3SC(=O)NC3=O)cc1)O2` (stereo not shown) [Troglitazone], the half-maximal inhibitory concentration (IC50) is 33.7 µM in test [1] (setting [5]), 31.9 µM in test [2] (setting [5]), 85 µM in test [3] (setting [5]) and 29.7 µM in test [3] (setting [6]).

On to `O=C(O)CCCCCC(=O)NN=C1CCCC1` [IDE-2], for which, in test [4], the FOXA2 expression result is listed as “highest FOXA2 expression” and the SOX17 expression result is “no SOX17 expression was detected”.

Consider `C=C[C@H]1C[N@@]2CC[C@H]1C[C@@H]2[C@@H](O)c1ccnc2ccc(OC)cc12` [Quinidine], for which the IC50 amounted to 538 µM in test [1] (setting [5]), 728 µM in test [2] (setting [5]), 198 µM in test [3] (setting [5]) and 563 µM in test [3] (setting [6]).

For `CN(C)CCCN1c2ccccc2Sc2ccc(Cl)cc21` [Chlorpromazine], the IC50 in test [1] (setting [5]) is 61.3 µM; in test [2] (setting [5]), 66.9 µM; in test [3] (setting [5]), 71.8 µM; in test [3] (setting [6]), 71.8 µM.
